#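 Five concentrations, 48 hours, 96-well plates. GI50 = concentration required for 50% inhibition of growth. TGI is the concentration that stops growth completely.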
# Experiments:
# Test in all cases: NCI tumour cell line growth inhibition, 48 h
# T-47D breast = tested on: T-47D breast
# MDA-MB-231 breast = tested on: MDA-MB-231 breast
# BT-549 breast = tested on: BT-549 breast
# DU-145 prostate = tested on: DU-145 prostate
# NCI/ADR-RES ovarian = tested on: NCI/ADR-RES ovarian
# MCF7 breast = tested on: MCF7 breast
# MDA-MB-435 = tested on: MDA-MB-435
Compound,TGI (T-47D breast) [µM],TGI (MDA-MB-231 breast) [µM],TGI (BT-549 breast) [µM],TGI (DU-145 prostate) [µM],TGI (NCI/ADR-RES ovarian) [µM],TGI (MCF7 breast) [µM],TGI (MDA-MB-435) [µM],GI50 (T-47D breast) [µM],GI50 (MDA-MB-231 breast) [µM],GI50 (BT-549 breast) [µM],GI50 (DU-145 prostate) [µM],GI50 (NCI/ADR-RES ovarian) [µM],GI50 (MCF7 breast) [µM],GI50 (MDA-MB-435) [µM]
COc1cc([N+](=O)[O-])ccc1NC(=O)C(F)(F)F,> 100,> 100,> 100,> 100,> 100,> 100,> 100,–,–,–,–,–,–,–
COc1cc2c3c(n(CCCCl)c(=O)c2cc1OC)-c1ccccc1C3=O,> 100,> 100,> 100,> 100,> 100,> 100,> 100,> 100,37,> 100,> 100,6.36,8.9,> 100
COc1cc(-c2c(C#N)c(N)n3c(nc4ccccc43)c2C#N)cc(Br)c1OC,–,> 100,> 100,–,> 100,–,> 100,–,2.46,> 100,–,> 100,–,> 100
COc1ccc(-c2cc3c(nn2)-c2ccccc2C3=O)cc1,> 100,> 100,> 100,> 100,> 100,> 100,> 100,> 100,70,> 100,> 100,> 100,36.1,> 100
O=C(O)C(Sc1ccc(Cl)cc1)Sc1ccc(Cl)cc1,> 100,> 100,> 100,> 100,> 100,> 100,> 100,–,–,–,–,–,–,–
COc1ccc2cc(C(=O)/C=C/c3cccc(OC)c3OC)ccc2c1,35.5,38.5,63.1,34.2,34.3,22.9,29.7,3.9,14.8,20.6,15.3,6.57,0.455,5.16
CCCCC/C=C/C/C=C/CCCCCCCC1=NC(C)(C)CN1C(C)C,3.98,4.36,23,3.11,7.44,2.87,2.82,1.97,1.75,5.84,1.73,2.32,1.54,1.5
COc1cc(Cn2c(-c3ccccc3)cc3c2-c2oncc2CC3)cc(OC)c1OC,81.2,> 100,–,> 100,> 100,22.3,0.905,1.07,2.82,–,1.73,0.328,0.443,0.248
Cc1cc(C)cc(Nc2cc(C)nc3nc(C(F)(F)F)nn23)c1,> 100,> 100,> 100,> 100,> 100,> 100,> 100,> 100,> 100,39.6,> 100,> 100,> 100,> 100
